Results taken from patent US20200261445A1, “USE OF SENOLYTIC AGENTS TO ELIMINATE PERSISTENT HIV RESERVOIRS” (The George Washington University, priority 2017, published 2020).

Assays:
[1] = tested on: HIV latency reservoir (resting CD4+ T cells); experiment: HIVE assay with quantitative viral outgrowth (IUPM), three HIV latency reservoir models; type: cell-based; conditions: A-463 only (100 nM per FIG. 9F); all three models; p<0.01
Experimental: (§1) For each condition tested, up to 200×10^6 PBMC were thawed from leukapheresis material. An aliquot of PBMCs was stained with antibodies to CD3, CD4, CD8, HLA-DR, and CD69 for flow cytometry analysis (pre-selection sample). Resting CD4^+ T-cells were enriched from these PBMC by negative selection (Easysep CD4^+ T-cell enrichment kit, Stemcell Technologies) following the manufacturer's instructions. Cells were washed and re-suspended in 1 ml of 2% FBS PBS and an aliquot was stained as above (post-selection sample). To proceed, >98% pure resting CD4^+ T-cells in the negative fraction we required. […]
(§2) Co-cultures were harvested at 4 days post-initiation of co-culture. […] CD4^+ T-cells were then fixed in 2% paraformaldehyde, and analyzed by flow cytometry on an LSR-II instrument and with FlowJo software.
(§3) DNA quantification: 2×10^6 cells/condition were centrifuged and DNA, for ddPCR, was extracted from cell pellets using the Gentra Puregene kit (Qiagen), following the manufacturer's instructions. This DNA was then analyzed by digital droplet polymerase chain reaction (see below). Infectious virus quantification: The remaining cells, to be used for viral outgrowth assays, were incubated overnight in R10-50+4 nM IL-15SA (ALT-803) at a concentration of 2×10^6 cells/ml. These cells are then plated out in quantitative viral outgrowth assays (see below). […]

[2] = tested on: HIV latency reservoir (resting CD4+ T cells); experiment: HIVE assay with ddPCR of total HIV DNA, three HIV latency reservoir models; type: cell-based; conditions: A-463 only (100 nM per FIG. 9E); all three models; p<0.01
Experimental: as §1, §2, §3

[3] = tested on: Bcl-2 family proteins; conditions: selectivity within the Bcl-2 family, Table 1; cited from earlier work
[4] = tested on: resting CD4+ T cells; experiment: Cell cytotoxicity in HIV latency reservoir model cultures; type: cell-based, human; conditions: ABT-199 at 1 μM; not enough cells left to measure replication-competent virus (FIG. 9A)
Experimental: For each condition tested, up to 200×10^6 PBMC were thawed from leukapheresis material. An aliquot of PBMCs was stained with antibodies to CD3, CD4, CD8, HLA-DR, and CD69 for flow cytometry analysis (pre-selection sample). Resting CD4^+ T-cells were enriched from these PBMC by negative selection (Easysep CD4^+ T-cell enrichment kit, Stemcell Technologies) following the manufacturer's instructions. Cells were washed and re-suspended in 1 ml of 2% FBS PBS and an aliquot was stained as above (post-selection sample). To proceed, >98% pure resting CD4^+ T-cells in the negative fraction we required.
NK cells and CTL clones were added at 1:10 effector:target ratios, with or without the indicated latency reversing agents. Co-cultures were performed at 2×10^6 cells/ml in XVIVO-15 serum free medium (Lonza) that had been supplemented with penicillin-streptomycin, L-glutamine, 0.1 nM IL-7 (to support survival), 1 μM tenofovir, 1 μM nevirapine, 1 μM emtricitabine, 10 μM T20, 10 U/ml DNAse I (ProSpec) ([…]). […]
Co-cultures were harvested at 4 days post-initiation of co-culture. […] CD4^+ T-cells were then fixed in 2% paraformaldehyde, and analyzed by flow cytometry on an LSR-II instrument and with FlowJo software. […]

[5] = target: Bcl-xL (Homo sapiens, UniProt Q07817); conditions: Table 1; cited from earlier work
[6] = tested on: HIV latency reservoir models spiked into natural reservoirs; experiment: 'Spiked' HIVE assay with QVOA (latency model cells spiked into natural reservoirs); type: cell-based; conditions: Bryostatin 10 nM, ABT-199 100 nM, HIV-specific CTLs, FIG. 10
Experimental: For experiments using CTL clones as effectors, clones were used at […] after their most recent re-stimulation. Specificity, functionality, and responsiveness of CTLs were confirmed by CD107a degranulation assays, as well as by HIV elimination assays the day before assay setup. Clones were washed extensively prior to addition to co-culture.
NK cells and CTL clones were added at 1:10 effector:target ratios, with or without the indicated latency reversing agents. […]
as §2, §3

Sequence of Bcl-xL (Q07817 whole entry): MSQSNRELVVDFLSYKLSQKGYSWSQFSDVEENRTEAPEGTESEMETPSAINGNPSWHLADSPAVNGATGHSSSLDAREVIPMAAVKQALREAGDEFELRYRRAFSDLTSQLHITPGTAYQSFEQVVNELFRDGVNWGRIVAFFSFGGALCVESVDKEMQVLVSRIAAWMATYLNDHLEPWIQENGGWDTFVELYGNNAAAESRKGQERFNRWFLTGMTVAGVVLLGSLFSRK

CN(C)CC#Cc1ccc(OCCCc2sc(N3CCc4cccc(C(=O)Nc5nc6ccccc6s5)c4C3)nc2C(=O)O)c(F)c1 [A-1155463]
infectious replicative competent (IUPM) [1]: statistically significant reduction
total HIV DNA copies [2]: statistically significant reduction
Selective/pan [3]: Selective

Cc1nn(C)c(COc2ccc(N3CCN(S(=O)(=O)N(C)C)CC3)cc2)c1-c1cccc2c(CCCOc3cccc4ccccc34)c(C(=O)O)n(CCN3CCOCC3)c12 [A-1210477]
Selective/pan [3]: Selective

Cc1c(-c2ccc(N3CCc4cccc(C(=O)Nc5nc6ccccc6s5)c4C3)nc2C(=O)O)cnn1CC12CC3CC(CC(C3)C1)C2 [A-1331852]
Selective/pan [3]: Selective

CC1(C)CCC(CN2CCN(c3ccc(C(=O)NS(=O)(=O)c4ccc(NCC5CCOCC5)c([N+](=O)[O-])c4)c(Oc4cnc5[nH]ccc5c4)c3)CC2)=C(c2ccc(Cl)cc2)C1 [ABT-199, Venetoclax]
cell cytotoxicity [4]: cell cytotoxicity

Cc1cc2c(C(C)C)c(O)c(O)c(C=O)c2c(O)c1-c1c(C)cc2c(C(C)C)c(O)c(O)c(C=O)c2c1O [AT101]
Selective/pan [3]: Pan
Known Bcl-xL inhibition [5]: Yes

CC(C)C(C(=O)O)N1C(=O)/C(=C\c2ccc(Br)cc2)SC1=S (centres unmarked) [BH31-1]
Selective/pan [3]: Pan
Known Bcl-xL inhibition [5]: Yes

CCC/C=C/C=C/C(=O)O[C@H]1/C(=C/C(=O)OC)C[C@H]2C[C@H]([C@@H](C)O)OC(=O)C[C@H](O)C[C@@H]3C[C@H](OC(C)=O)C(C)(C)[C@](O)(C[C@@H]4C/C(=C/C(=O)OC)C[C@H](/C=C/C(C)(C)[C@]1(O)O2)O4)O3 [Bryostatin, bryostatin 1]
IUPM compared to the NoTx condition [6]: did not lead to significant decreases

CC(C)=CCC[C@]1(C)C=Cc2c(O)c3c(c(CC=C(C)C)c2O1)O[C@]12C(=C[C@@H]4C[C@H]1C(C)(C)O[C@@]2(C/C=C(/C)C(=O)O)C4=O)C3=O [Gambogic Acid]
Selective/pan [3]: Pan
Known Bcl-xL inhibition [5]: Yes

Cc1cc2c(C(=O)NC[C@H](C)c3ccccc3)c(O)c(O)cc2c(O)c1-c1c(C)cc2c(C(=O)NC[C@H](C)c3ccccc3)c(O)c(O)cc2c1O [Sabutoclax]
Selective/pan [3]: Pan
Known Bcl-xL inhibition [5]: Yes

CC(C)c1ccccc1Cc1cc(C(=O)Nc2ccc(S(=O)(=O)c3ccccc3C(C)(C)C)cc2)c(O)c(O)c1O [TW-37]
Selective/pan [3]: Pan
Known Bcl-xL inhibition [5]: Yes

O=C(O)CSc1cc(NS(=O)(=O)c2ccc(Br)cc2)c2ccccc2c1O [UMI-77]
Selective/pan [3]: Selective

ABT-263
Selective/pan [3]: Pan
Known Bcl-xL inhibition [5]: Yes
